Values quoted from earlier work, collected in PMC8739290, “A phase 1b study of erlotinib and momelotinib for the treatment of EGFR-mutated, tyrosine kinase inhibitor-naive metastatic non-small cell lung cancer” (Cancer Chemotherapy and Pharmacology, 2021).
Like-named read-outs stand apart in the source and are kept apart here.

How the values were obtained:
HCC-827 xenograft models = system: HCC-827 xenograft models; set-up: method as in PMID 22319590; conditions: cited from earlier work
[1] = system: colony formation in soft agar assays; set-up: method as in PMID 22319590; conditions: cited from earlier work
HCC4006 xenograft model = system: HCC4006 xenograft model; set-up: method as in PMID 25065853; conditions: ruxolitinib plus erlotinib; cited from earlier work
[2] = system: patients who had progressed on at least 1 first-generation EGFR TKI; set-up: method as in PMID 31319994; conditions: ruxolitinib in combination with afatinib, cited from earlier work
[3] = system: patients with documented progression on erlotinib; set-up: method as in PMID 27613527; conditions: ruxolitinib in combination with erlotinib, cited from earlier work
PC-9 and HCC827 models = system: PC-9 and HCC827 models; set-up: method as in PMID 32297743, doi:10.1158/7445.AM2017-4046; conditions: AZD4205 with osimertinib, increased tumor regression, delayed regrowth, knockdown of pSTAT3; cited from earlier work

In the case of N#CC[C@H](C1CCCC1)n1cc(-c2ncnc3[nH]ccc23)cn1 [ruxolitinib], the tumor growth (HCC-827 xenograft models) is listed as “slowed tumor growth”, the colony formation [1] is listed as “decreased colony formation” and the “combination activity compared to EGFR inhibition alone” value (HCC4006 xenograft model) is listed as “synergistic activity”. For the same compound, the objective response ([2]; patients with EGFR T790M, 5 of 20) was 25%, the “median PFS” value ([2]; patients with EGFR T790M, 95% CI 2.5–7.3) was 4.9 months and the objective response ([2]; patients without EGFR T790M, 2 of 10) was 20%. For the same compound, the “median PFS” value ([2]; patients without EGFR T790M, 95% CI 0.0–8.8) was 3.1 months, the objective response ([3]; 1 of 22 patients) was 5% and the “median PFS” value ([3]; 95% CI 1.5–4.1) was 2.2 months.
For COc1nn(C)cc1Nc1nccc(-c2c[nH]c3c(NC(=O)[C@@H](C)N4CCN(C)CC4)cccc23)n1 [AZD4205, (2R)-N-[3-[2-[(3-Methoxy-1-methyl-pyrazol-4-yl)amino]pyrimidin-4-yl]-1H-indol-7-yl]-2-(4-methylpiperazin-1-yl)propenamide], the “combination activity compared to each agent alone” value (PC-9 and HCC827 models) is listed as “synergistic activity”.
